The IC50 is the concentration that gives 50% inhibition.

Data set [1] can be described thus: Phase 2a in subjects with actinic keratosis, safety. Type of data set: in vivo, human. The method, then: The Phase 2 clinical trial was a multiple-center randomized, double-blind, placebo-controlled, parallel-cohorts study to evaluate the efficacy, safety, tolerability, and pharmacokinetics of once-daily application of topical Formula C ointment (QD 200 mg) for 28 days in subjects with actinic keratosis. Subjects were followed for one or two months after they completed treatment (through day 56 or day 84). The primary and exploratory efficacy endpoints for the study were reduction in the number of lesions on days 56 and 84, respectively. Subjects were randomly assigned in a double-blind fashion to one of three parallel treatment cohorts (5%, or 10% Formula C, or placebo) at a ratio of 1:1:1. To qualify for the study, subjects aged 18 (inclusive) or older must have had 4-8 discrete Grade 1 or 2 AK lesions within a 25-centimeter squared area of the skin of their scalp or face. The study enrolled 93 subjects in the US and Israel.

Data set [2] deals with T1, VDAC1/HK1 complex (Homo sapiens, UniProt P19367).
T1 construct: host or cells: E. coli (HK1); sheep liver mitochondria (VDAC1)
T1 sequence (P19367 whole entry, one chain of several): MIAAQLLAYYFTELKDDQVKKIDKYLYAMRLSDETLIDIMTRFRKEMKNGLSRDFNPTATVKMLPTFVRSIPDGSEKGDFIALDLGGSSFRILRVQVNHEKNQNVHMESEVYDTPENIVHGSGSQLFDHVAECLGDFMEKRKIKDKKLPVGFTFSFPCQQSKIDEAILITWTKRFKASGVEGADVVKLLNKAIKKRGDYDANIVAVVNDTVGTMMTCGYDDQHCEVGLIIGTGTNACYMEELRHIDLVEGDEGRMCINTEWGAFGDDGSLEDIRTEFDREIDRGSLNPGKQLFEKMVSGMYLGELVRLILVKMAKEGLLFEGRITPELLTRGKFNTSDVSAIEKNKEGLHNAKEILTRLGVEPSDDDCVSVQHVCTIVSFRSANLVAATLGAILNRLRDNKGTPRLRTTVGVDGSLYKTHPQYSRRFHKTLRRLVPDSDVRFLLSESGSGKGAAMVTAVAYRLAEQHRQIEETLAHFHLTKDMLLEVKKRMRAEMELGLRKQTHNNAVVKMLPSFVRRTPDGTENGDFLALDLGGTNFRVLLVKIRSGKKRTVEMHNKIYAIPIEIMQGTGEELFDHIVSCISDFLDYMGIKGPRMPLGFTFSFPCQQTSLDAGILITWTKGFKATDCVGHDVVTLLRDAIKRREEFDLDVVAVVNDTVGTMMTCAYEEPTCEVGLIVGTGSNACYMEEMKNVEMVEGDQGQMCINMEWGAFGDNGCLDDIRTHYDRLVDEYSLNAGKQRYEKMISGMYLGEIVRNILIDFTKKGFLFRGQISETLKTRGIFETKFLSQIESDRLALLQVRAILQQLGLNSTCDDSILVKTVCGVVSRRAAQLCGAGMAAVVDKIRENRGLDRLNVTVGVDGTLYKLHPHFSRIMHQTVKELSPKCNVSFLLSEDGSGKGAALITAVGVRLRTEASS
The data set is described as follows: Microscale Thermophoresis (MST) dissociation of VDAC1/HK1 complex. The note with it: cell-free MST. The data set is classed as binding. The method, then: A431 (human skin SCC), HT-297.T (human AK), and HaCaT transformed normal keratinocyte cell lines were from ATCC (Manassas, VA) and were maintained in DMEM supplemented with 10% FCS, 4 mM L-Gln, 1 mM sodium pyruvate, 100 U/mL penicillin, 1 μg/mL streptomycin. Human HK1 and HK2 plasmids were purchased from Addgene (Cambridge, MA) and were purified from E. Coli. VDAC1 was purified from sheep liver mitochondria as described (Arbel et al. 2012, incorporated herein by reference). Human skin tissue microarray (SK208 and SK 805) were purchased from US Biomax Inc. (Rockville, MD).
Studies were conducted on Nanotemper Monolith NT.115 (Munich, Germany). HK1 and HK2 were labeled using Monolith™ NT.115 Protein Labeling Kit BLUE-NHS. As a preliminary study to form the VDAC1-HK complexes, various concentrations of VDAC1 were added to 67 nM HK1 or 71 nM HK2. The preferred VDAC1 concentration was determined to be 1.5 μM. For dissociation studies, HKs were pre-incubated with VDAC1 for 10 minutes and various concentrations of Formula C were added for an additional 10 minutes. MST default parameters were used and analysis was with Nanotemper analysis software. […]
The activity of Formula C in a cell-free assay was evaluated using Microscale Thermophoresis (MST) analysis, which is based on altered movement of a protein in a temperature gradient when bound to other molecules. […]
On the technique in general: MST reads how a fluorescent partner responds to local heating, with and without ligand.

The nature of data set [3]: Phase 1a single topical application, safety and tolerability. The data set is classed as in vivo, human. To be noted: healthy volunteers. The method, then: The Phase 1a clinical trial was a randomized, double-blinded, placebo-controlled, dose-escalation study in healthy older-adult volunteers to evaluate the safety, tolerability, and pharmacokinetics of a single topical dermal application of Formula C ointment. The study was conducted under FDA IND in a Phase 1 unit in the United States.
Fifteen healthy volunteers, aged 35-70, were sequentially assigned to 1 of 3 consecutive treatment cohorts (5%, 10% or 20% Formula C ointment, respectively). Five subjects were randomized in a double-blind fashion in each dose cohort: 4 subjects received active Formula C ointment and 1 received matched placebo (0% Formula C; vehicle control). The study ointment (250 mg) was applied once to a 25 centimeter squared area of skin on the forehead of each volunteer.

Data set [4] is described as follows: Skin irritation in naïve SKH-1 mice. The data set is classed as in vivo, mouse. To be noted: skin of naïve SKH-1 mice.
The test system of data set [5] is Colon CXF HCT 116. The data set is described as follows: CFA, CXF HCT 116. The note with it: PDX/CFA. Type of data set: cell-based, human. The method, then: (§1) CFA was performed by Charles River Laboratories (Freiburg, Germany) in 96-well plate format according to a modified two-layer soft agar assay. The origin of the tumor xenografts has been described (Fiebig et al. 1989, incorporated herein by reference). The list of tumors used in this study is detailed in Table 1.

The subject of data set [6] is Kidney RXF 1220. The data set can be described thus: CFA, RXF 1220. The data set is classed as cell-based, human. To be noted: PDX/CFA. On the procedure:
as §1

The subject of data set [7] is Melanoma MEXF 535. The data set is described as follows: CFA, MEXF 535. Type of data set: cell-based, human. The note with it: PDX/CFA. The method, then:
as §1

The subject of data set [8] is Leukemia (AML) LEXFAM NOMO-1. The data set is described as follows: CFA, LEXFAM NOMO-1. The data set is classed as cell-based, human. The note with it: Cell line/CFA. On the procedure: as §1
Data set [9] has as its system Lung (NSCLC, epidermoid) LXFE 937. The data set is described as follows: CFA, LXFE 937. The data set is classed as cell-based, human. The note with it: PDX/CFA. The method, then:
as §1

The subject of data set [10] is Leukemia (BCLL) LEXFCM EM-2. The data set can be described thus: CFA, LEXFCM EM-2. Type of data set: cell-based, human. To be noted: Cell line/CFA. The method, then: as §1
In data set [11] the test system is Cutanous T cell lymphoma HH. The data set can be described thus: XTT cell viability assay, HH. Type of data set: cell-based, human. To be noted: Cell line/XTT. On the procedure:
(§2) For XTT assays, cells were plated in 96-well plates (5,000 cells per well) for 24 hours. Cells were then incubated with different concentrations of Formula C in triplicates for 72 hr in DMEM supplemented with 0.5% FCS and 5 mM Glucose. Cell viability was evaluated using 2,3-bis-(2-methoxy-4-nitro-5-sulfophenyl)-2H-tetrazolium-5-carboxanilide (XTT)-based colorimetric assay kit (Biological Industries Ltd., Kibbutz Beit-Haemek, Israel). The optical density was measured by an Infinite 200 ELISA reader at 450 nm and reference was measured at 630 nm (Tecan, Männedorf, Switzerland).
Background: Formazan colour is commonly taken as a measure of viable cells.

Data set [12] has as its system Leukemia (ALL) LEXFAL CCRF-CEM. The data set can be described thus: CFA, LEXFAL CCRF-CEM. The data set is classed as cell-based, human. To be noted: Cell line/CFA. The method, then:
as §1

Data set [13] has as its system Cutanous T cell lymphoma Hut-78. The data set is described as follows: XTT cell viability assay, Hut-78. The data set is classed as cell-based, human. The note with it: Cell line/XTT. The method, then: as §2

SMILES strings stand for the structures. Values joined by “and” are separate entries in the source; they are usually repeats but may differ in a detail not shown here. Equal values may be shown once.

In the case of `CC/C=C\CC1C(=O)CCC1CC(=O)Oc1cccc2cccnc12` (stereo not shown) [Formula C], the “serious adverse events (deemed unrelated)” value turned out to be 1 elective surgery in [1] (5% group) and 1 acute pneumonia in data set [1] (10% group). In addition, the “treatment-emergent AEs deemed related to the study drug” value in data set [1] (5% group, listed as VDA-1102) is 1 mild dyspepsia and 1 mild hypopigmentation. Besides, the “clinically significant changes at application sites (Local Skin Reactions), vital signs, physical examinations, clinical laboratory results, ECGs” value in [1] (any subject, any time point) is on record as “No clinically significant changes”. Moreover, in [1] (subjects with AK, 5% or 10% ointment QD 28 days), the safety signals entry is recorded as “No safety signals”. Moreover, the “effect on the VDAC1/HK1 complex” value in [2] was “no effect”. Besides, the “clinically significant changes at application sites, vital signs, physical examinations, clinical laboratory results, ECGs, Holter monitors” value in data set [3] (single topical application) is “No clinically significant changes”. Besides, the “severity and course of adverse events” value in [3] (single topical application) was “mild, short-lived and reversible”. The serious adverse events result in [3] (single topical application of 250 mg 5%, 10% or 20% ointment to 25 cm2 forehead) is recorded as “No serious adverse events”. Also, the skin irritation result in data set [4] is given as “did not cause any irritation”. The IC50 was 4330 nM in [5]; 6330 nM in [6]; 538 nM in data set [7]; 1420 nM in data set [8]; 5570 nM in [9]; 2780 nM in data set [10]. The results for the IC50 in [11], in [12] and in [13] were 604 nM, 206 nM and 1060 nM, respectively.
